Counter-ions that a name gives are not always drawn.
How the values were obtained:
Assay type in all cases: in vivo, mouse
[1] = test system: F4/80+ macrophages (CD38, CD206, LSD1p); test: Immunofluorescence assay of TME macrophage populations (M1/M2 profiles)
Description: FIG. 4 is a graphical representation showing that dual epigenetic-immunotherapy re-educates and re-programs innate macrophage repertoire. A. Immunofluorescence microscopy was performed on F4/80+MØ cells fixed and probed with a M1 panel consisting of anti-CD38 and ? odies and DAPI. […] B. Immunofluorescence microscopy was performed on F4/80+MØ cells fixed and probed with a M2 panel consisting of anti-CD206 and anti LSD1p antibodies and DAPI.
The effect of these treatment modalities was also investigated on TME macrophage populations by immunofluorescence assay (IFA). In particular, the M1 (CD38 expression) and M2 profiles (CD206 expression) were examined, along with LSD1p expression.
(§1) A total of 2×10^5 cells were injected per mouse into mammary gland in 50 μL of phosphate buffered saline (PBS). Treatments were started on mice after 15 days post-inoculation of 4T1 cells. […] Tumors were measured using calipers and the tumor volumes (mm3) were calculated using the formula (length×width2)/2. ? arvested cells from primary tumors where then cytospun ? -treated with poly-1-lysine and fixed then stored in PBS for IFA Microscopy Analysis. […] Digital images were analysed using ImageJ software (ImageJ, NIH, Bethesda, Md., USA) to determine the either the Total Nuclear Fluorescent Intensity (TNFI), the Total Cytoplasmic Fluorescent Intensity (TCFI) or total Fluorescent Intensity (TFI).

IFN-γ and TNF-α = test: Immunofluorescence of IFN-γ and TNF-α in CD8+ T-cells; conditions: IF % change
Description: FIG. 5 is a graphical representation showing that dual epigenetic-immunotherapy re-educates and re-programs the T-cell repertoire. A. Cells stimulated with PMA/ionomycin for 4 hours in the presence of Brefeldin A. Cells were surfaced stained with CD45, CD3, CD4, CD8, CD44, CD62L (for naïve, effector and central memory), CD25 and FoxP3 (for Tregs) and analyzed via Flow cytometry. A Mann-Whitney non-parametric t-test was used to compare control vs other groups (*p<0.05, n=2-5). […] Representative images for each dataset are shown. TNFI values for EOMES, TBET and Ki67 measured using Image) to select the nucleus minus background. […] Cells stimulated with PMA/ionomycin for 4 hours in the presence of Brefeldin A. Cell were surfaced stained with CD45, CD3, CD4, CD8 and intracellular staining of IFN-γ, IL-2 and TNF-α in the presence of Brefeldin A and analyzed via flow cytometry. […] TNFI values for TNFα and IFNγ measured using ImageJ to select the nucleus minus background. […]
A total of 2×10^5 cells were injected per mouse into mammary gland in 50 μL of phosphate buffered saline (PBS). […] Tumors were measured using calipers and the tumor volumes (mm3) were calculated using the formula (length×width2)/2. ? arvested cells from primary tumors where then cytospun ? -treated with poly-1-lysine and fixed then stored in PBS for IFA Microscopy Analysis. […]

EOMES, TBET and Ki67 = test: Immunofluorescence of T-cell exhaustion signature in CD8+ T-cells isolated from TME; conditions: % change relative to control
Description: FIG. 5 is a graphical representation showing that dual epigenetic-immunotherapy re-educates and re-programs the T-cell repertoire. A. Cells stimulated with PMA/ionomycin for 4 hours in the presence of Brefeldin A. Cells were surfaced stained with CD45, CD3, CD4, CD8, CD44, CD62L (for naïve, effector and central memory), CD25 and FoxP3 (for Tregs) and analyzed via Flow cytometry. A Mann-Whitney non-parametric t-test was used to compare control vs other groups (*p<0.05, n=2-5). […] Representative images for each dataset are shown. TNFI values for EOMES, TBET and Ki67 measured using Image) to select the nucleus minus background. Graphs represent the % change of expression relative to control group for CD8^+ T-cells. (n>20 individual cells, Group A=Control, Group C: PD1 (10 mg/kg), Group D: Phenelzine (40 mg/kg), Group F: PD1+Phenelzine). C. Cells stimulated with PMA/ionomycin for 4 hours in the presence of Brefeldin A. Cell were surfaced stained with CD45, CD3, CD4, CD8 and intracellular staining of IFN-γ, IL-2 and TNF-α in the presence of Brefeldin A and analyzed via flow cytometry. A Mann-Whitney non-parametric t-test was used to compare control vs other groups (*p<0.05, **p<0.008; n=2-5). […] Representative images for each dataset are shown. TNFI values for TNFα and IFNγ measured using ImageJ to select the nucleus minus background. Graphs represent the % change of expression relative to control group for CD8^+ T-cells. […]
as §1, with “(PBS).” for “(PBS). Treatments were started on mice after 15 days post-inoculation of 4T1 cells.”

Compound: NNCCc1ccccc1 (racemic) [phenelzine sulfate, (±)-2-phenylethylhydrazine]
- M1 phenotype (CD38 expression and LSD1p inhibition) [1]: most strongly enhanced
- tumor associated M2 profile (CD206 and LSD1p expression) [1]: re-programmed and inhibited
- IFN-γ expression (IFN-γ and TNF-α): no significant effect
- EOMES expression (EOMES, TBET and Ki67): strongly inhibit
- Ki67 expression (EOMES, TBET and Ki67): more strongly
- TBET expression (EOMES, TBET and Ki67): more strongly

From patent US20210186905A1, “ENHANCING T-CELL FUNCTION AND TREATING A T-CELL DYSFUNCTIONAL DISORDER WITH A COMBINATION OF AN LSD INHIBITOR AND A PD-1 BINDING ANTAGONIST” (EpiAxis Therapeutic Pty Ltd, priority 2017, published 2021)
